From US20210163471A1, “PROGRANULIN MODULATORS AND METHODS OF USING THE SAME” (ARKUDA THERAPEUTICS, priority 2017, published 2021)
Where two headings read alike, the source gives them in different places.

Tested on: BV-2 (mouse microglia) cells
Experiment: progranulin secretion from BV-2 cells, mouse progranulin ELISA of conditioned media
Format: cell-based
Conditions: BV-2 cells, 16 hours incubation, 8-point curves starting at 10 μM
Procedure: BV-2 cells are split the day before plating into a 96 well plate format at approximately 80%. Cells should be plated the day before and allowed for 1 hour attachment period and for 16 hour incubation. […] Standard ELISA kits to measure PGRN are available from vendors such as Adipogen, R&D, and Biovendor.
Compound potency was determined by measuring progranulin secretion from BV-2 (mouse microglia) cells. BV-2 cells were grown in RPMI with 2 mM L-glutamine supplemented with 10% fetal bovine serum. On the day of the assay, cells were plated in 96-well plates at a density of 30,000 cells/well in RPMI (Roswell Park Memorial Institute media)/L-glutamine supplemented with 2% Fetal clone serum II (plating media) and left to adhere for 1 hour. Following attachment to the plate, media was replaced with treatment (8-point curves in half-log dilutions starting at 10 μM) in plating media and incubated for 16 hours. Secreted progranulin was measured from a 1:10 dilution of the conditioned media using the R&D Systems mouse progranulin ELISA kit (cat #DY2557) and following the manufacturer's instructions.

[1] = Mus musculus, assay run v1, read-out: PRGN v1 (EC50, progranulin secretion)
[2] = assay run v1, read-out: PRGN v1 (EC50, progranulin secretion)
[3] = Mus musculus, assay run v2 (same protocol, different assay), read-out: PRGN v2 (EC50, progranulin secretion)
[4] = assay run v2 (same protocol, different assay), read-out: PRGN v2 (EC50, progranulin secretion)
[5] = Mus musculus, BV-2, 16 h, assay run v1, read-out: PRGN v1 (EC50, progranulin secretion)

Row | Structure (SMILES) | EC50 [1] [µM] | EC50 [2] [µM] | EC50 [4] [µM] | further results
1 | CS(=O)(=O)c1ccc([C@H]2c3ccccc3CCN2C(=O)O[C@@H]2CN3CCC2CC3)cc1 [Compound 1001, (S)—((S)-quinuclidin-3-yl)-1-(4-(methylsulfonyl)phenyl)-3,4-dihydroisoquinoline-2(1H)-carboxylate] | > 10 |  |  | 
2 | O=C(O[C@@H]1CN2CCC1CC2)N1CCc2ccccc2[C@@H]1c1ccnc(O)c1 [Compound 1002] |  | > 10 |  | 
3 | O=C(O[C@@H]1CN2CCC1CC2)N1CCc2ccccc2[C@H]1c1ccnc(O)c1 [Compound 1003] |  | > 10 |  | 
4 | O=C(O[C@@H]1CN2CCC1CC2)N1CCc2ccccc2[C@@H]1c1ccc(F)cc1 [Compound 1004, (S)—((S)-quinuclidin-3-yl) 1-(4-fluorophenyl)-3,4-dihydroisoquinoline-2(1H)-carboxylate] | 0.36 |  |  | EC50 [3]: 0.43 µM
5 | O=C(O[C@@H]1CN2CCC1CC2)N1CCc2ccccc2[C@H]1c1ccc(F)cc1 [Compound 1005] | > 7 |  |  | 
6 | O=C(O[C@@H]1CN2CCC1CC2)N1CCc2ccccc2[C@@H]1c1ccc(-n2ccnc2)cc1 [Compound 1006] | 5.7 |  |  | 
7 | O=C(O[C@@H]1CN2CCC1CC2)N1CCc2ccccc2[C@H]1c1ccc(-n2ccnc2)cc1 [Compound 1007] | > 10 |  |  | 
8 | COc1cc([C@H]2c3ccccc3CCN2C(=O)O[C@@H]2CN3CCC2CC3)ccn1 [Compound 1008] |  | > 10 |  | 
9 | COc1cc([C@@H]2c3ccccc3CCN2C(=O)O[C@@H]2CN3CCC2CC3)ccn1 [Compound 1009] |  | > 10 |  | 
10 | O=C(O[C@@H]1CN2CCC1CC2)N1CCc2ccccc2[C@@H]1c1ccc(F)c(F)c1 [Compound 1010] | 0.92 |  |  | EC50 [3]: 2.03 µM
11 | O=C(O[C@@H]1CN2CCC1CC2)N1CCc2ccccc2[C@H]1c1ccc(F)c(F)c1 [Compound 1011] | 7.14 |  |  | EC50 [3]: 8.74 µM
12 | O=C(O[C@@H]1CN2CCC1CC2)N1CCc2ccccc2[C@@H]1c1ccc(F)cc1F [Compound 1012] |  | 0.44 | 0.25 | 
13 | O=C(O[C@@H]1CN2CCC1CC2)N1CCc2ccccc2[C@H]1c1ccc(F)cc1F [Compound 1013] |  | > 10 | 1.75 | 
14 | O=C(O[C@@H]1CN2CCC1CC2)N1CCc2ccccc2[C@H]1c1cccc(F)c1F [Compound 1014] |  | > 10 | 4.3 | 
15 | O=C(O[C@@H]1CN2CCC1CC2)N1CCc2ccccc2[C@@H]1c1cccc(F)c1F [Compound 1015] |  | 0.33 | 1.11 | 
16 | O=C1CCCN1c1ccc([C@H]2c3ccccc3CCN2C(=O)O[C@@H]2CN3CCC2CC3)cc1 [Compound 1016] | > 10 |  |  | EC50 [3]: > 10 µM
17 | O=C1CCCN1c1ccc([C@@H]2c3ccccc3CCN2C(=O)O[C@@H]2CN3CCC2CC3)cc1 [Compound 1017] | > 10 |  |  | EC50 [3]: > 10 µM
18 | O=C(O[C@@H]1CN2CCC1CC2)N1CCc2ccccc2[C@@H]1c1ccc(-n2cncn2)cc1 [Compound 1018] | > 10 |  |  | EC50 [3]: > 10 µM
19 | O=C(O[C@@H]1CN2CCC1CC2)N1CCc2ccccc2[C@H]1c1ccc(-n2cncn2)cc1 [Compound 1019] | > 10 |  |  | EC50 [3]: > 10 µM
20 | O=C(O[C@@H]1CN2CCC1CC2)N1CCc2ccccc2[C@@H]1c1cccc(F)c1 [Compound 1020] |  | 1.37 | 3.55 | 

Row | Structure (SMILES) | EC50 [1] [µM] | EC50 [2] [µM] | EC50 [4] [µM] | further results
21 | O=C(O[C@@H]1CN2CCC1CC2)N1CCc2ccccc2[C@H]1c1cccc(F)c1 [Compound 1021] |  | > 10 | 1.03 | 
22 | O=C(O[C@@H]1CN2CCC1CC2)N1CCc2ccccc2[C@@H]1c1ccc(OC2CC2)cc1 [Compound 1022] | > 10 |  |  | EC50 [3]: > 10 µM
23 | O=C(O[C@@H]1CN2CCC1CC2)N1CCc2ccccc2[C@H]1c1ccc(OC2CC2)cc1 [Compound 1023] | 9.53 |  |  | EC50 [3]: 6.33 µM
24 | COc1ccc([C@H]2c3ccccc3CCN2C(=O)O[C@@H]2CN3CCC2CC3)cc1 [Compound 1024] |  | 2.87 | 2.91 | 
25 | COc1ccc([C@@H]2c3ccccc3CCN2C(=O)O[C@@H]2CN3CCC2CC3)cc1 [Compound 1025] |  | 4.41 | > 10 | 
26 | O=C1CCC([C@H]2c3ccccc3CCN2C(=O)O[C@@H]2CN3CCC2CC3)CN1 (stereo partly drawn) [Compound 1026] |  | > 10 | > 10 | 
27 | O=C1CCC([C@@H]2c3ccccc3CCN2C(=O)O[C@@H]2CN3CCC2CC3)CN1 (stereo partly drawn) [Compound 1027] |  | 9.53 | > 10 | 
28 | COc1ccc([C@H]2c3ccccc3CCN2C(=O)O[C@@H]2CN3CCC2CC3)cn1 [Compound 1028] |  | > 10 | > 10 | 
29 | COc1ccc([C@@H]2c3ccccc3CCN2C(=O)O[C@@H]2CN3CCC2CC3)cn1 [Compound 1029] |  | > 10 | > 10 | 
30 | O=C(O[C@@H]1CN2CCC1CC2)N1CCc2ccccc2[C@@H]1CS(=O)(=O)c1ccccc1 [Compound 1030] | > 10 |  |  | EC50 [3]: > 10 µM
31 | O=C(O[C@@H]1CN2CCC1CC2)N1CCc2ccccc2[C@H]1CS(=O)(=O)c1ccccc1 [Compound 1031] | > 10 |  |  | EC50 [3]: > 10 µM
32 | O=C(O[C@@H]1CN2CCC1CC2)N1CCc2ccccc2[C@@H]1c1ccc2ncsc2c1 [Compound 1032] |  | > 10 | 7.88 | 
33 | O=C(O[C@@H]1CN2CCC1CC2)N1CCc2ccccc2[C@H]1c1ccc2ncsc2c1 [Compound 1033] |  | > 10 | > 10 | 
34 | O=C(O[C@@H]1CN2CCC1CC2)N1CCc2ccccc2[C@@H]1c1ccc2scnc2c1 [Compound 1034] |  | > 10 | 5.77 | 
35 | O=C(O[C@@H]1CN2CCC1CC2)N1CCc2ccccc2[C@H]1c1ccc2scnc2c1 [Compound 1035] |  | > 10 | > 10 | 
36 | O=C(O[C@@H]1CN2CCC1CC2)N1CCc2ccccc2[C@@H]1c1cc2ccccc2s1 [Compound 1036] |  | > 3.16 | > 10 | 
37 | O=C(O[C@@H]1CN2CCC1CC2)N1CCc2ccccc2[C@H]1c1cc2ccccc2s1 [Compound 1037] |  | > 3.16 | > 10 | 
38 | COc1ccc([C@H]2c3ccccc3CCN2C(=O)O[C@@H]2CN3CCC2CC3)cc1F [Compound 1038] |  |  | > 10 | 
39 | COc1ccc([C@@H]2c3ccccc3CCN2C(=O)O[C@@H]2CN3CCC2CC3)cc1F [Compound 1039] |  |  | > 10 | 
40 | O=C(O[C@@H]1CN2CCC1CC2)N1CCc2ccccc2[C@@H]1c1cc(F)cc(F)c1 [Compound 1040] |  |  | > 10 | 

Row | Structure (SMILES) | EC50 [1] [µM] | EC50 [2] [µM] | EC50 [4] [µM] | further results
41 | O=C(O[C@@H]1CN2CCC1CC2)N1CCc2ccccc2[C@H]1c1cc(F)cc(F)c1 [Compound 1041] |  |  | > 10 | 
42 | O=C(O[C@@H]1CN2CCC1CC2)N1CCc2ccccc2[C@@H]1c1ccc(-n2cnnc2)cc1 [Compound 1042] |  |  |  | EC50 [3]: > 10 µM
43 | O=C(O[C@@H]1CN2CCC1CC2)N1CCc2ccccc2[C@H]1c1ccc(-n2cnnc2)cc1 [Compound 1043] |  |  |  | EC50 [3]: > 10 µM
44 | O=C(O[C@@H]1CN2CCC1CC2)N1Cc2ccccc2[C@@H]1c1ccccc1 [Compound 1044] |  |  |  | EC50 [3]: > 10 µM
45 | O=C(O[C@@H]1CN2CCC1CC2)N1Cc2ccccc2[C@H]1c1ccccc1 [Compound 1045] |  |  |  | EC50 [3]: > 10 µM
46 | O=C(O[C@@H]1CN2CCC1CC2)N1CCc2ccccc2[C@@H]1c1ccc(Cl)cc1 [Compound 1046] | 0.34 |  |  | 
47 | O=C(N[C@@H]1CN2CCC1CC2)N1CCc2ccccc2[C@@H]1c1ccccc1 [Compound 1047] |  |  |  | EC50 [5]: 0.7 µM
48 | O=C(C[C@@H]1CN2CCC1CC2)N1CCc2ccccc2[C@@H]1c1ccccc1 [Compound 1048] |  |  |  | EC50 [5]: 0.88 µM
49 | O=C(C[C@@H]1CN2CCC1CC2)N1CCc2ccccc2[C@@H]1c1ccc(Cl)cc1 [Compound 1049] |  |  |  | EC50 [5]: 0.21 µM
50 | CC1(C)[C@@H](NC(=O)N2CCc3ccccc3[C@@H]2c2ccc(Cl)cc2)C2CCN1CC2 [Compound 1050] |  |  |  | EC50 [5]: 0.36 µM
51 | O=C(C[C@H]1CN2CCC1CC2)N1CCc2ccccc2[C@@H]1c1ccccc1 [Compound 1051] |  |  |  | EC50 [5]: 1.37 µM
52 | CS(=O)(=O)c1ccc([C@H]2c3ccccc3CCN2C(=O)C[C@@H]2CN3CCC2CC3)cc1 [Compound 1052] |  |  |  | EC50 [5]: > 10 µM
53 | O=C(C[C@@H]1CN2CCC1CC2)N1CCc2ccccc2[C@@H]1c1ccc(F)cc1F [Compound 1053] |  |  |  | EC50 [5]: 0.96 µM
54 | O=C(C[C@@H]1CN2CCC1CC2)N1CCc2ccccc2[C@@H]1c1ccc(-n2cncn2)cc1 [Compound 1054] |  |  |  | EC50 [5]: > 10 µM
55 | O=C(C[C@@H]1CN2CCC1CC2)N1CCc2ccccc2[C@H]1c1ccc(-n2cncn2)cc1 [Compound 1055] |  |  |  | EC50 [5]: > 10 µM
56 | COc1ccc([C@H]2c3ccccc3CCN2C(=O)C[C@@H]2CN3CCC2CC3)cc1 [Compound 1056] |  |  |  | EC50 [5]: 3.72 µM
57 | COc1ccc([C@@H]2c3ccccc3CCN2C(=O)C[C@@H]2CN3CCC2CC3)cc1 [Compound 1057] |  |  |  | EC50 [5]: 4.2 µM
58 | O=C(C[C@@H]1CN2CCC1CC2)N1CCc2ccccc2[C@@H]1c1ccc(F)cc1 [Compound 1058] | 0.22 |  |  | 
59 | O=C(C[C@@H]1CN2CCC1CC2)N1CCc2ccccc2[C@H]1c1ccc(F)cc1 [Compound 1059] | > 10 |  |  | 
60 | COc1ccc([C@H]2c3ccccc3CCN2C(=O)C[C@@H]2CN3CCC2CC3)cc1F [Compound 1060] |  |  |  | EC50 [5]: > 10 µM; EC50 (Mus musculus, BV-2, 16 h, assay run v2 (same protocol, different assay), read-out: PRGN v2 (EC50, progranulin secretion)): 2.07 µM
